Results published in paper PMC10439310 (Nature microbiology, 2022).

What was measured:
[1] = biological target: T1, BsIMPDH (Bacillus subtilis, UniProt P21879); details: for binding to BsIMPDH (in words): ITC, 25 °C, 25 μM BsIMPDH
[2] = biological target: T1, BsIMPDH; experiment: Mass photometry of BsIMPDH tetramer/octamer state; details: EC50 of BsIMPDH octamer formation, absence of substrates, 100 nM BsIMPDH
[3] = test system: E. coli IMPDH; details: cited from earlier work
[4] = test system: A. gossypii IMPDH; details: cited from earlier work
[5] = test system: BsIMPDH-ΔCBS; details: 10 μM Ap4A
[6] = biological target: T1, BsIMPDH; experiment: biochemical
[7] = biological target: T1, BsIMPDH; experiment: biochemical; remark: listed apart in the source
[8] = biological target: T1, BsIMPDH; details: 50 μM BsIMPDH, 5 mM ligand, 25 °C
[9] = test system: BsIMPDH-ΔCBS; details: presence of IMP and NAD+
[10] = dinucleotide 10 μM, NAD+ constant, IMP variable

T1 sequence (P21879 whole entry): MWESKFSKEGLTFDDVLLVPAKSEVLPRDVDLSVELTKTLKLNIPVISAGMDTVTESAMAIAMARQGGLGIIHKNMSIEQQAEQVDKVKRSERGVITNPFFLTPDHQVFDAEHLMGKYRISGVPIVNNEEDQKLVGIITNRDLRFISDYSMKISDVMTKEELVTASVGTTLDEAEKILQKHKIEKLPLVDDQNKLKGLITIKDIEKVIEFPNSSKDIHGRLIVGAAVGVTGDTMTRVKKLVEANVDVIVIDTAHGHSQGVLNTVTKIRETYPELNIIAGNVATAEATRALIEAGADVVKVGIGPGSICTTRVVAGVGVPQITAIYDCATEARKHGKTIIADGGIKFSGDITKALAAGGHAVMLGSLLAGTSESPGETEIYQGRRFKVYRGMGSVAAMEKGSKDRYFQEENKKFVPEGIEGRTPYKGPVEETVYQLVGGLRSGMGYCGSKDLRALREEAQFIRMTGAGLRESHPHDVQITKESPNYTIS

Nc1nc2c(ncn2[C@@H]2O[C@H](COP(=O)(O)OP(=O)(O)OP(=O)(O)OC[C@H]3O[C@@H](n4cnc5c(N)ncnc54)[C@H](O)[C@@H]3O)[C@@H](O)[C@H]2O)c(=O)[nH]1 [Ap3G]
binding to BsIMPDH (in words) [1]: No binding

Nc1ncnc2c1ncn2[C@@H]1O[C@H](COP(=O)(O)OP(=O)(O)OP(=O)(O)OP(=O)(O)OC[C@H]2O[C@@H](n3cnc4c(N)ncnc43)[C@H](O)[C@@H]2O)[C@@H](O)[C@H]1O [Ap4A, diadenosine 5’,5’’’-P1,P4-tetraphosphate]
EC50 [2]: 90 µM | affinity relative to ATP [3]: five-fold higher affinity than ATP | difference in affinity between Ap4A and ATP ([1]; from ITC Kd values): approximately 700 fold | binding (in words) [4]: only with low affinity | Ap4A-dependent regulation of enzymatic activity (in words) [5]: insensitive to Ap4A-dependent regulation | Kd [6]: 7.4 ± 2.1 µM | Ki [7]: 15.8 µM | effect on BsIMPDH activity (in words) ([7]; Ap4A 1-100 μM): potently reduced BsIMPDH activity | effect on conformational flexibility of CBS domains (HDX-MS, in words) [8]: restrict the conformational flexibility of the CBS domains | Ap4A-dependent tetramer-to-octamer equilibrium (in words) [9]: insensitive to Ap4A-dependent regulation

Nc1nc2c(ncn2[C@@H]2O[C@H](COP(=O)(O)OP(=O)(O)OP(=O)(O)OP(=O)(O)OC[C@H]3O[C@@H](n4cnc5c(N)ncnc54)[C@@H](O)C3O)[C@H](O)C2O)c(=O)[nH]1 (some centres unmarked) [Ap4G]
binding to BsIMPDH (in words) [1]: No binding

Nc1ncnc2c1ncn2[C@@H]1O[C@H](COP(=O)(O)OP(=O)(O)OP(=O)(O)OP(=O)(O)OP(=O)(O)OC[C@H]2O[C@@H](n3cnc4c(N)ncnc43)[C@H](O)[C@@H]2O)[C@@H](O)[C@H]1O [Ap5A]
effect on BsIMPDH activity (in words) [7, 10]: resulted in BsIMPDH inhibition

Nc1nc2c(ncn2[C@@H]2O[C@H](COP(=O)(O)OP(=O)(O)OP(=O)(O)OP(=O)(O)OP(=O)(O)OC[C@H]3O[C@@H](n4cnc5c(N)ncnc54)[C@H](O)[C@@H]3O)[C@@H](O)[C@H]2O)c(=O)[nH]1 [Ap5G]
binding to BsIMPDH (in words) [1]: No binding | binding (in words) [4]: well

Nc1ncnc2c1ncn2[C@@H]1O[C@H](COP(=O)(O)OP(=O)(O)OP(=O)(O)OP(=O)(O)OP(=O)(O)OP(=O)(O)OC[C@H]2O[C@@H](n3cnc4c(N)ncnc43)[C@H](O)[C@@H]2O)[C@@H](O)[C@H]1O [Ap6A]
effect on BsIMPDH activity (in words) [7, 10]: resulted in BsIMPDH inhibition

Nc1nc2c(ncn2[C@@H]2O[C@H](COP(=O)(O)OP(=O)(O)O)[C@@H](O)[C@H]2O)c(=O)[nH]1 [GDP, guanosine-5’-mono-, di-, triphosphate]
binding (in words) [4]: well
